Measured values published in ChEMBL document CHEMBL1141809, “Antioxidative phenolic glycosides from sage (Salvia officinalis)” (J Nat Prod, 1999).

Experiments:
[1] = tested on: Radical scavenging activity; assay: Antioxidant activity assessed as DPPH radical scavenging activity after 0.5 hrs; type: functional
[2] = Antioxidant activity assessed as trolox equivalent of ABTS radical scavenging activity in aqueous phase by metmyoglobin assay; type: functional

Row | SMILES | IC50 [1] | Activity [2]
1 | O=C(/C=C/c1ccc(O)c(O)c1)O[C@H]1O[C@@H](CO[C@H]2OC[C@@](O)(CO)[C@@H]2O)[C@H](O)[C@@H](O)[C@@H]1O | 19.8 µM | 3.86
2 | O=C(/C=C/c1ccc(O)c(O)c1)OC[C@H]1O[C@H](O[C@]2(CO)O[C@H](CO)[C@@H](O)[C@@H]2O)[C@H](O)[C@@H](O)[C@@H]1O | 20.1 µM | 3.7
